Measured values reported in the NIST ThermoML archive (doi:10.1016/j.tca.2006.02.036).
Numbers after ± are expanded uncertainties.

Experiments:
[1] = Molar enthalpy of transition or fusion; details: Crystal 2; DSC
[2] = Crystal 2; Adiabatic calorimetry

C1C2CC3CC1CC(C2)C3 [adamantane]
Molar enthalpy of transition or fusion [1]: 0.739 ± 0.043 kcal/mol
Triple point temperature [2]: 208 ± 0.18 K
